Legend:
Bcl2 family members = assay: Western blot of Bcl2 family members, KO99L cells; assay type: cell-based, murine; settings: 10.0 μM, starting at 6.0 h
Experimental: Cell extracts were prepared using a cell lysis buffer (50 mM HEPES, pH 7.4, 150 mM NaCl, 20 mM EDTA, 100 mM NaF, 10 mM Na3VO4, 0.5% nonyl phenoxypolyethoxylethanol (NP40) supplemented with a cocktail of protease inhibitors. After SDS-PAGE separation and transfer to nitrocellulose immunoblotting was performed using the following antibodies against: Akt (Cell Signaling Technologies, #9272), CHOP (#2895), cleaved caspase 3 (#9664), c-Myc (#9402), eIF2a (#9721), 4EBP1 (#9644), LC3A/B (#12741), PARP (#9542), pJnk (T183/Y185) (#9251), pSer235-236-S6RP (#4856), pSer473-Akt (#9271), pSer65-4EBP1 (#9451) and S6RP (#2217); Bax (Sigma-Aldrich, B8429); PUMA (Abcam, ab54288); Bak (Millipore, 06536); ATF4 (Santa Cruz Biotechnologies, sc200), GADD34 (sc8327), Hsp60 (sc-1722), Hsp90 (sc-13119) and XBP1 (sc-7160); ATF6 (Imgenex, IMG-273).

[1] = tested on: human Peripheral Blood Lymphocytes; assay: Proliferative response of human PBL; assay type: cell-based; settings: 1.0-50.0 μM
KO99L cells = assay: Mitochondrial trans-membrane potential (TMRE staining), KO99L cells; assay type: cell-based, murine
Experimental: Mitochondrial trans-membrane potential (ψm) changes as a function of apoptotic events were measured using Tetra Methyl Rhodamine Ethyl Ester Perchlorate assay (TMRE; Molecular Probes). […] Thereafter, the cells were washed twice with PBS and then stained with DAPI (Sigma-Aldrich, 1.0 μg/mL) and examined via a MACSQuant Analyser (Miltenyi Biotech) and the data evaluated via FlowJo software.

KO99-S cells = assay: Cell death (PI staining) of parental KO99-S cells; assay type: cell-based, murine; settings: 48 h
[2] = tested on: KO99L cells (tPTEN−/− tumor cell line); assay: WST-1 cell viability assay on KO99L cells; assay type: cell-based, murine
Experimental: Two different assays were employed: i) In a 96-well plate format, cells (4.0±0.1×10^4 per well; 100 μL) were incubated with effectors (48 h, 37° C.; n=4 per experiment) and then WST-1 reagent (10 μL; Roche Diagnostics) added to each well of 96-well plates, incubated, and the formazan production was measured at 490 nm; and ii) cells (2.0±0.1×10^4 per well; 100 μL) were incubated with effectors (48 h, 37° C.; n=4 per experiment) and then bromodeoxyuridine reagent (10 μL/well; Roche Diagnostics) was added to each well and incubated (8 h, 37° C.). The cells were then fixed, denatured and incubated with anti-BrdU-conjugated with peroxidase (POD) antibody (100 μL/well). Colorimetric substrate (TMB: tetramethyl-benzidine; 100 μL/well) was added and BrdU incorporation quantified via optical density measurement (450 nm) which corresponds to DNA synthesis and proliferating cells.

mTORC1 / Akt activation = assay: Western blot of S6RP, 4EBP1 and Akt phosphorylation, KO99L cells; assay type: cell-based, murine; settings: 2.0-24 h; COMPOUND-JP 10.0 μM; MK-2206 5.0 μM; KU0063794 5.0 μM; rapamycin 10.0 nM; L-Asp, Erw 2.5 units/ml; velcade at 24 h

SMILES: Nc1cc(COc2c(Cl)cc(C[C@H](N)C(=O)O)cc2Cl)c2oc(-c3ccccc3)nc2c1 [COMPOUND-JP, O-(5-amino-2-phenylbenzoxazole-7-yl)methyl-3,5-dichloro-L-tyrosine]
- protein levels of four pro-apoptotic members: Bak, Bax, PUMA and Bim (Bcl2 family members): increased protein levels
- PBL cell proliferation [1]: did not significantly alter
- Mitonchondrial Outer Membrane Permeabilization (MOMP) (KO99L cells; 5.0 and 10.0 μM): cause MOMP
- mitochondrial depolarization (KO99L cells; highest concentration tested (20.0 μM), 48 hr): 70%
- cell death (KO99-S cells): concentration dependent cell death
- cell viability ([2]; KO99L cells, 2.5-10.0 μM, 48 h): dose-dependent decrease
- reversal of the viability decrease by Essential Amino Acids (EAA) in the medium ([2]; KO99L cells, 2.5-10.0 μM, NEAA no rescue): partially reversed
- cytotoxicity at 40 µM ([2]; Mus musculus, KO99-S (parental KO99L), 40 μM, 48 h, read-out: decrease in cell viability): 95 to 100%
- IC50 ([2]; Mus musculus, KO99L tPTEN−/− cells, 48 h, read-out: IC50, cell viability (drug concentration to kill half of the cells)): 2400 nM
- 4EBP1 phosphorylation (mTORC1 / Akt activation): no effect
- Akt phosphorylation (serine 473) / activation (mTORC1 / Akt activation): interfered with Akt activation
- S6RP phosphorylation (mTORC1 activation) (mTORC1 / Akt activation): affect mTORC1 activation as early as 2.0 h
